# Experimental data from patent US9770451B2, “Composition including ATM inhibitor for reducing cellular senescence and use of the composition” (Samsung Electronics Co., Ltd., priority 2014, dated 2017).
# Tests used:
# Format in all cases: cell-based, human
# [1] = system: senescent myoblasts (passage 11); assay: Lipofuscin autofluorescence (FACS); settings: CP-466722 0.1 μM, 4 weeks
# Experimental: In addition, the amounts of lipofuscin in the cells cultured as described above were measured. The senescent myoblast (passage 11) that became senescent in the presence of KU-60019 (0.5 μM) were cultured in a CO2 incubator at a temperature of 37° C. for 4 weeks. The medium was replaced by a fresh medium containing KU-60019 (0.5 μM), once every 4 days. Lipofuscin is characterized by having autofluorescence capability, and in this regard, the cultured cells were irradiated with a wavelength of 488 nm by using a FACSCaliber (Beckton Dickinson), and then, measured with radiation emitted from a wavelength of 520 nm. The results were analyzed using Cell Quest 3.2 software (Beckton Dickinson). FIG. 17 is a graph showing lipofuscin measured in the cells that were cultured in the presence of KU-60019.
# In addition, the amounts of lipofuscin in the cells cultured as described above were measured. […] Lipofuscin is characterized by having autofluorescence capability, and in this regard, the cultured cells were irradiated with a wavelength of 488 nm by using a FACSCaliber (Beckton Dickinson), and then, measured with radiation emitted from a wavelength of 520 nm. The results were analyzed using Cell Quest 3.2 software (Beckton Dickinson). FIG. 23 is a graph showing lipofuscin measured in the cells that were cultured in the presence of CP-466722.
# [2] = system: senescent myoblasts (passage 11); assay: Morphological change by microscopy; settings: CP-466722 0.1 μM, 4 weeks
# Experimental: A human myoblast cell line (Human Skeletal Muscle Myoblasts, Lonza CC-2580 LOT:0000387550) was inoculated into a plate (Greiner Bio One, 658950), which was coated with Collagen Type I, by using an SkBM™-2 Basal Medium (Lonza CC-3246) containing SkGM™-2 SingleQuots™ Kit (Lonza CC-3244), and then, cultured in a 5% CO2 incubator at a temperature of 37° C. When the cells were grown to about 85% confluency in the plate, the cells were subjected to subculture. The early subculture was carried out at a split ratio of 1:4, and the late subculture was carried out at a split ratio of 1:2. When the cell doubling time was 14 days, the cells were considered to be senescent […] (passages 10 to 12).
# The senescent cells were inoculated into each well of a Collagen Type I-coated 6-well plate (Greiner Bio One, 657950) at a concentration of 2,000 cells/well, and then, the senescent myoblasts ([…]) in a CO2 incubator at a temperature of 37° C. for 4 weeks. The medium was replaced by a fresh medium containing KU-60019 (0.5 μM), once every 4 days. In addition, as a negative control group, the cells were cultured under the same conditions as described above, except that a medium used herein contained DMSO (0.05 (v/v) %).
# In FIG. 16, the myoblasts were cultured in the presence of the ATM-kinase inhibitor KU-60019 (0.5 μM), and then, the cell shapes were photographed using a microscope. […]
# [3] = system: senescent myoblasts (passage 11); assay: ROS measurement (MitoSOX Red); settings: CP-466722 0.1 μM
# Experimental: (§1) ROS was measured according to the protocol of the manufacturer using a 0.2 μM MitoSOX™ Red reagent (Invitrogen, M36008). In detail, 2 μL of the reagent that was stored in a 1,000-fold concentration was added to a 2 ml medium sufficiently enough to cover the cultured cells that were attached to a coverslip. While being protected from light, the cells were further incubated at a temperature of 37° C. for 30 minutes. The cultured cells were irradiated with a wavelength of 520 nm by using a FACSCaliber (Beckton Dickinson), and then, measured with radiation emitted from a wavelength of 580 nm. The results were analyzed using Cell Quest 3.2 software (Beckton Dickinson).
# as §1, with “by using an FACSCaliber (Beckton” for “by using a FACSCaliber (Beckton”
# [4] = system: progeria senescent fibroblasts (passage 17); assay: SA-β-galactosidase staining; settings: CP-466722 0.1 μM, 4 weeks
smiles,measurement,setting,value
"COc1cc2ncnc(-n3nc(-c4ccccn4)nc3N)c2cc1OC [CP-466722, 2-(6,7-dimethoxyquinazolin-4-yl)-5-(pyridin-2-yl)-2H-1,2,4-triazol-3-amine]",amount of lipofuscin vs control,[1],significantly decreased
same,cell number and morphology vs DMSO control,[2],exist in a great number in the presence of CP-466722 and show a spindle form
same,amount of ROS (superoxide) vs control,[3],significantly decreased
same,number of cells that express β-galactosidase vs DMSO control,[4],significantly decreased
